Measurements: patent US10208019B2, “GLP-1 receptor agonists and uses thereof” (Pfizer Inc., priority 2016, dated 2019)

Legend:
[1] = target: human GLP-1R (Homo sapiens, UniProt P43220, G168S); assay: CHO GLP-1R Clone H6—Assay 1: HTRF cAMP cell-based functional agonist assay (high GLP-1R density); details: for EC50: read-out: Assay 1 EC50, CHO GLP-1R Clone H6, cAMP HTRF, geometric mean; for Emax: read-out: Assay 1 Emax (%), CHO GLP-1R Clone H6
[2] = target: human GLP-1R (Homo sapiens (Human), UniProt P43220, L260F); assay: CHO GLP-1R Clone C6—Assay 2: HTRF cAMP cell-based functional agonist assay (low GLP-1R density); details: for EC50: CHO GLP-1R Clone C6, cAMP HTRF, geometric mean; for Emax: CHO GLP-1R Clone C6, relative to saturating concentration of full agonist GLP-1 (1 μM), arithmetic mean, read-out: Assay 2 Emax (%)
Chain of human GLP-1R (Homo sapiens (Human), UniProt P43220, L260F) (P43220 24-463 L260F): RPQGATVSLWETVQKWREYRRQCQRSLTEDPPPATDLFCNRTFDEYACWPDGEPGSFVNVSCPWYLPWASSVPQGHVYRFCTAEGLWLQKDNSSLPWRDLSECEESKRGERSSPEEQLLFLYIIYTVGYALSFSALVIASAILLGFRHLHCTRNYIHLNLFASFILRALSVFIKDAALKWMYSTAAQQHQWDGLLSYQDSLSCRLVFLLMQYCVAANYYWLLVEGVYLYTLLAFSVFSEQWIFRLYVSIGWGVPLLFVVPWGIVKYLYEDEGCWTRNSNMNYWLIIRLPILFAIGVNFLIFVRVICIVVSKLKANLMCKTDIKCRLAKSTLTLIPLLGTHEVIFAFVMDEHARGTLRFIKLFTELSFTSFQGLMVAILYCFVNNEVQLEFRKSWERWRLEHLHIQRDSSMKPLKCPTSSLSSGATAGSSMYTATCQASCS

[3] = relative to saturating concentration of full agonist GLP-1 (1 μM), arithmetic mean

Chain of human GLP-1R (Homo sapiens, UniProt P43220, G168S) (P43220 24-463 G168S limits assumed): as the sequence (P43220 24-463 L260F) above, with G145S, F237L counted along it

EC50 [1] [nM] | Emax [1, 3] [%] | EC50 [2] [nM] | Emax [2] [%] | Assay 1 Emax (%) ([1]; CHO GLP-1R Clone H6, relative to saturating concentration of full agonist GLP-1 (1 μM), arithmetic mean) | SMILES
7.1 | 81 | 120 | 85 |  | COCCn1c(CN2CCN(c3ccc(F)c(OCc4ccc(C#N)cc4)n3)C[C@@H]2C)nc2ccc(C(=O)O)cc21 [Example 1A-08, 2-{[(2S)-4-{6-[(4-cyanobenzyl)oxy]-5-fluoropyridin-2-yl}-2-methylpiperazin-1-yl]methyl}-1-(2-methoxyethyl)-1H-benzimidazole-6-carboxylic acid]
18 | 82 | 270 | 83 |  | Cn1nccc1Cn1c(CN2CCC(c3cccc(OCc4ccc(Cl)cc4F)n3)CC2)nc2ccc(C(=O)O)cc21 [Example 11A-21, 2-[(4-{6-[(4-chloro-2-fluorobenzyl)oxy]pyridin-2-yl}piperidin-1-yl)methyl]-1-[(1-methyl-1H-pyrazol-5-yl)methyl]-1H-benzimidazole-6-carboxylic acid]
0.52 | 70 | 8.5 | 78 |  | C[C@H]1CN(c2cccc(OCc3ccc(F)cc3F)n2)CCN1Cc1nc2ccc(C(=O)O)cc2n1C[C@@H]1CCO1 [Example 10A-58, 2-{[(2S)-4-{6-[(2,4-difluorobenzyl)oxy]pyridin-2-yl}-2-methylpiperazin-1-yl]methyl}-1-[(2S)-oxetan-2-ylmethyl]-1H-benzimidazole-6-carboxylic acid]
30 | 77 | 360 | 89 |  | O=C(O)c1ccc2nc(CN3CCC(c4cccc(OCc5ccc(Cl)cc5F)n4)CC3)n(Cc3nnc[nH]3)c2c1 [Example 11A-25, 2-[(4-{6-[(4-chloro-2-fluorobenzyl)oxy]pyridin-2-yl}piperidin-1-yl)methyl]-1-(4H-1,2,4-triazol-3-ylmethyl)-1H-benzimidazole-6-carboxylic acid]
6 | 80 | 78 | 88 |  | O=C(O)c1ccc2nc(CN3CCC(c4cccc(OCc5ccc(Cl)cc5F)n4)CC3)n(Cc3ncco3)c2n1 [Example 2A-18, 2-[(4-{6-[(4-chloro-2-fluorobenzyl)oxy]pyridin-2-yl}piperidin-1-yl)methyl]-3-(1,3-oxazol-2-ylmethyl)-3H-imidazo[4,5-b]pyridine-5-carboxylic acid]
30 | 73 | 570 | 93 |  | Cn1cnnc1Cn1c(CN2CCC(c3cccc(OCc4ccc(Cl)cc4F)n3)CC2)nc2ccc(C(=O)O)cc21 [Example 11A-71, 2-[(4-{6-[(4-chloro-2-fluorobenzyl)oxy]pyridin-2-yl}piperidin-1-yl)methyl]-1-[(4-methyl-4H-1,2,4-triazol-3-yl)methyl]-1H-benzimidazole-6-carboxylic acid]
5.2 |  | 120 | 80 | 66 | COCCn1c(CN2CCC(c3cccc(OCc4ccc(Cl)cc4F)n3)CC2C)nc2ccc(C(=O)O)cc21 (single isomer, unassigned) [Example 13A-03, cis 2-{[4-{6-[(4-Chloro-2-fluorobenzyl)oxy]pyridin-2-yl}-2-methylpiperidin-1-yl]methyl}-1-(2-methoxyethyl)-1H-benzimidazole-6-carboxylic acid]
150 | 86 | 4100 | 110 |  | COC[C@@H]1C[C@H]1Cn1c(CN2CCC(c3cccc(OCc4ccc(Cl)cc4F)n3)CC2)nc2ccc(C(=O)O)cc21 [Example 1A-30, 2-[(4-{6-[(4-chloro-2-fluorobenzyl)oxy]pyridin-2-yl}piperidin-1-yl)methyl]-1-{[(1R,2R)-2-(methoxymethyl)cyclopropyl]methyl}-1H-benzimidazole-6-carboxylic acid]
1.6 | 83 | 28 | 88 |  | N#Cc1ccc(COc2cccc(C3CCN(Cc4nc5ccc(C(=O)O)cc5n4C[C@@H]4CCO4)CC3)n2)cc1 [Example 10A-78, 2-[(4-{6-[(4-cyanobenzyl)oxy]pyridin-2-yl}piperidin-1-yl)methyl]-1-[(2S)-oxetan-2-ylmethyl]-1H-benzimidazole-6-carboxylic acid]
